The test system of this test is Osteoclast precursor cells. The experiment in a line: Osteoclast differentiation assay. It counts as cell-based. As for the experimental part:
Further, an osteoclast differentiation assay is used to assess the efficacy of Fms inhibitors for treating bone disease such as osteoarthritis. On day 0, Osteoclast Medium BulletKit (Lonza catalog # PT-8001, containing Media, FBS, L-Glutamine, PenStrep, RANKL, and M-CSF) media is thawed and the FBS, L-glutamine and PenStrep from the kit is added to 100 mL of Osteoclast Precursor Basal medium to provide the Osteoclast Precursor Growth Medium (OPGM). This is warmed to 37° C. Osteoclast precursor cells (Lonza catalog #2T-110) frozen in cryovial are warmed to 37° C. and transferred to a 50 mL conical tube. The cryovial is rinsed with OPGM and added dropwise to the conical tube of cells with swirling, then the volume is adjusted to 20-30 mL with addition of OPGM. The cells are centrifuged at 200×g for 15 minutes at room temperature and all but approximately 3 mL of supernatant is removed to a new conical tube. The cells are suspended in the remaining supernatant and the volume is adjusted to 10-15 mL with OPGM added dropwise with swirling. The cells are centrifuged at 200×g for 15 minutes at room temperature and all but approximately 1 mL of supernatant is removed. The cells are resuspended in the remaining supernatant, counted, and the volume adjusted with an appropriate amount of OPGM to provide approximately 1×10^5 cells/mL. A 0.1 mL aliquot of cells is added to each well of a 96-well plate. Compound to be tested is prepared in DMSO for plating at a high concentration of 2.5 mM, with 8 point 1:3 serial dilutions. A 1 μL aliquot of each compound dilution is added to a 96 well v-bottom polypropylene plate and 0.124 mL of OPGM is added to the compound. Then 50 μL of the compound in OPGM is added to the osteoclast precursor cells in 96-well plate (providing highest test concentration of 5 μM). RANKL (2 μg) from the BulletKit is reconstituted in 1 mL of OPGM, then vortexed and centrifuged briefly. A 792 μL aliquot of RANKL is added to 6 mL of OPGM and 50 μL is added to low control wells. Then 76.6 μL M-CSF ([…]) from the BulletKit is added to the remaining 5.8 mL of OPGM/RANKL solution (4×RANKL/M-CSF/OPGM). A 50 μL aliquot of this is added to the remaining wells, and the remainder is stored at 4° C. for later use. The plate is incubated at 37° C. for 6 days, then the remaining OPGM/RANKL/M-CSF solution is warmed to 37° C. The remaining approximately 198 μL is combined with 6 mL of OPGM. The media is aspirated from the osteoclast wells and 100 μL of RANKL/OPGM is added to the low controls. The remaining RANKL/OPGM is combined with the approximately 18.5 μL of remaining M-CSF. The remaining 4×RANKL/M-CSF/OPGM from day 0 is diluted to 1× and combined with the freshly prepared solution. A 0.1 mL aliquot of this is added to each osteoclast well and incubated for 37° C. for 1 day. The Acid Phosphatase kit (Cayman Chemical catalog #10008051) is warmed to room temperature. The assay buffer is diluted 5 mL with 45 mL of water. For each plate, two substrate tablets are dissolved in 4.5 mL of the assay buffer, mixing by vortex to break up the tablet. Stop solution is diluted 12 mL with 36 mL of water. In a tissue culture hood, 20 μL of each osteoclast well supernatant is transferred to a 96 well plate. A 30 μL aliquot of the substrate solution is added to each well and incubated at 37° C. for 20 minutes, then added […] stop solution to each well. The absorbance of each well is read at 405 nm on Safire plate reader. The absorbance reading is plotted vs. concentration to provide the IC50 for each compound.
For the compound `COc1ccc(CNc2ncc(Cc3c[nH]c4ncc(C)cc34)cc2C)cn1` [Compound P-1554, (6-Methoxy-pyridin-3-ylmethyl)-[3-methyl-5-(5-methyl-1H-pyrrolo[2,3-b]pyridin-3-ylmethyl)-pyridin-2-yl]-amine], the IC50 – broadly, the point on the concentration scale where inhibition reaches its midpoint – is less than 100 nM.

On to `Fc1cncc(CNc2ccc(Cc3c[nH]c4ncc(Cl)cc34)c(F)n2)c1` [Compound P-2001, [5-(5-Chloro-1H-pyrrolo[2,3-b]pyridin-3-ylmethyl)-6-fluoro-pyridin-2-yl]-(5-fluoro-pyridin-3-ylmethyl)-amine], for which the IC50 is less than 100 nM. Next, `Clc1cnc2[nH]cc(Cc3ccc(NCc4ccc(Cl)nc4)nc3)c2c1` [Compound P-2003, (6-Chloro-pyridin-3-ylmethyl)-[5-(5-chloro-1H-pyrrolo[2,3-b]pyridin-3-ylmethyl)-pyridin-2-yl]-amine]: less than 100 nM. Then `Fc1ccc(CNc2ccc(Cc3c[nH]c4ncc(Cl)cc34)cn2)cn1` [Compound P-2004, [5-(5-Chloro-1H-pyrrolo[2,3-b]pyridin-3-ylmethyl)-pyridin-2-yl]-(6-fluoro-pyridin-3-ylmethyl)-amine], with less than 100 nM. Then `Cc1cnc2[nH]cc(Cc3ccc(NCc4ccc(C(F)(F)F)nc4)nc3)c2c1` [Compound P-2019, [5-(5-Methyl-1H-pyrrolo[2,3-b]pyridin-3-ylmethyl)-pyridin-2-yl]-(6-trifluoromethyl-pyridin-3-ylmethyl)-amine], with less than 100 nM.

Compound `COc1cnc2[nH]cc(Cc3ccc(NCc4cncc(F)c4)nc3F)c2c1` [Compound P-2028, [6-Fluoro-5-(5-methoxy-1H-pyrrolo[2,3-b]pyridin-3-ylmethyl)-pyridin-2-yl]-(5-fluoro-pyridin-3-ylmethyl)-amine] gave an IC50 of less than 100 nM. `COc1ccc(CNc2ccc(Cc3c[nH]c4ncc(C)cc34)c(F)n2)cn1` [Compound P-2029, [6-Fluoro-5-(5-methyl-1H-pyrrolo[2,3-b]pyridin-3-ylmethyl)-pyridin-2-yl]-(6-methoxy-pyridin-3-ylmethyl)-amine] came in with an IC50 of less than 100 nM. Next, `COc1cnc2[nH]cc(Cc3ccc(NCc4ccc(OC)nc4)nc3F)c2c1` [Compound P-2030, [6-Fluoro-5-(5-methoxy-1H-pyrrolo[2,3-b]pyridin-3-ylmethyl)-pyridin-2-yl]-(6-methoxy-pyridin-3-ylmethyl)-amine]: less than 100 nM. Take `Cc1cnc2[nH]cc(Cc3ccc(NCc4ccc(C(F)(F)F)nc4)nc3F)c2c1` [Compound P-2031, [6-Fluoro-5-(5-methyl-1H-pyrrolo[2,3-b]pyridin-3-ylmethyl)-pyridin-2-yl]-(6-trifluoromethyl-pyridin-3-ylmethyl)-amine]: the IC50 is less than 100 nM. For `COc1cnc2[nH]cc(Cc3ccc(NCc4ccc(Cl)cc4)nc3F)c2c1` [Compound P-2032, (4-Chloro-benzyl)-[6-fluoro-5-(5-methoxy-1H-pyrrolo[2,3-b]pyridin-3-ylmethyl)-pyridin-2-yl]-amine], the IC50 was less than 100 nM. Then `COc1ccnc2[nH]cc(Cc3ccc(NCc4ccc(Cl)cc4)nc3F)c12` [Compound P-2037, (4-Chloro-benzyl)-[6-fluoro-5-(4-methoxy-1H-pyrrolo[2,3-b]pyridin-3-ylmethyl)-pyridin-2-yl]-amine], with less than 100 nM; and `COc1ccc(CNc2ncc(Cc3c[nH]c4ncc(Cl)cc34)cn2)cn1` [Compound P-2038, [5-(5-Chloro-1H-pyrrolo[2,3-b]pyridin-3-ylmethyl)-pyrimidin-2-yl]-(6-methoxy-pyridin-3-ylmethyl)-amine], with less than 100 nM; and `COc1ncccc1CNc1ccc(Cc2c[nH]c3ncccc23)c(F)n1` [Compound P-2045, [6-Fluoro-5-(1H-pyrrolo[2,3-b]pyridin-3-ylmethyl)-pyridin-2-yl]-(2-methoxy-pyridin-3-ylmethyl)-amine], with less than 100 nM. In turn, `COc1ncc(CNc2ccc(Cc3c[nH]c4ncc(C)cc34)c(F)n2)cc1F` [Compound P-2048, (5-Fluoro-6-methoxy-pyridin-3-ylmethyl)-[6-fluoro-5-(5-methyl-1H-pyrrolo[2,3-b]pyridin-3-ylmethyl)-pyridin-2-yl]-amine] registered an IC50 of less than 100 nM.

Consider `COc1ncc(F)cc1CNc1ccc(Cc2c[nH]c3ncc(C)cc23)c(F)n1` [Compound P-2049, (5-Fluoro-2-methoxy-pyridin-3-ylmethyl)-[6-fluoro-5-(5-methyl-1H-pyrrolo[2,3-b]pyridin-3-ylmethyl)-pyridin-2-yl]-amine], for which the IC50 is less than 100 nM.

Consider `COc1ncccc1CNc1ccc(Cc2c[nH]c3ncc(C)cc23)c(F)n1` [Compound P-2052, [6-Fluoro-5-(5-methyl-1H-pyrrolo[2,3-b]pyridin-3-ylmethyl)-pyridin-2-yl]-(2-methoxy-pyridin-3-ylmethyl)-amine], for which the IC50 was less than 100 nM.

Take `COc1ccc(CNc2ncc(Cc3c[nH]c4ncc(C)cc34)cn2)cn1` [Compound P-2057, (6-Methoxy-pyridin-3-ylmethyl)-[5-(5-methyl-1H-pyrrolo[2,3-b]pyridin-3-ylmethyl)-pyrimidin-2-yl]-amine]: the IC50 is less than 100 nM.

`COc1ncc(F)cc1CNc1ncc(Cc2c[nH]c3ncc(C)cc23)cn1` [Compound P-2061, (5-Fluoro-2-methoxy-pyridin-3-ylmethyl)-[5-(5-methyl-1H-pyrrolo[2,3-b]pyridin-3-ylmethyl)-pyrimidin-2-yl]-amine] displayed an IC50 of less than 100 nM. Next, `FC(F)(F)c1ccncc1CNc1ccc(Cc2c[nH]c3ncc(Cl)cc23)cn1` [Compound P-2063, [5-(5-Chloro-1H-pyrrolo[2,3-b]pyridin-3-ylmethyl)-pyridin-2-yl]-(4-trifluoromethyl-pyridin-3-ylmethyl)-amine]: less than 100 nM; `COc1ncc(F)cc1CNc1ncc(Cc2c[nH]c3ncc(Cl)cc23)cn1` [Compound P-2064, [5-(5-Chloro-1H-pyrrolo[2,3-b]pyridin-3-ylmethyl)-pyrimidin-2-yl]-(5-fluoro-2-methoxy-pyridin-3-ylmethyl)-amine]: less than 100 nM. Next, `Cc1cnc2[nH]cc(Cc3ccc(NCc4cnccc4C(F)(F)F)nc3)c2c1` [Compound P-2070, [5-(5-Methyl-1H-pyrrolo[2,3-b]pyridin-3-ylmethyl)-pyridin-2-yl]-(4-trifluoromethyl-pyridin-3-ylmethyl)-amine]: less than 100 nM; `Cc1cnc2[nH]cc(Cc3cnc(NCc4ccc(C(F)(F)F)nc4)c(F)c3)c2c1` [Compound P-2146, [3-Fluoro-5-(5-methyl-1H-pyrrolo[2,3-b]pyridin-3-ylmethyl)-pyridin-2-yl]-(6-trifluoromethyl-pyridin-3-ylmethyl)-amine]: less than 100 nM; `COc1cnc2[nH]cc(Cc3cnc(NCc4ccc(C(F)(F)F)nc4)c(F)c3)c2c1` [Compound P-2147, [3-Fluoro-5-(5-methoxy-1H-pyrrolo[2,3-b]pyridin-3-ylmethyl)-pyridin-2-yl]-(6-trifluoromethyl-pyridin-3-ylmethyl)-amine]: less than 100 nM.

Take `Cn1cc(F)cc(CNc2ncc(Cc3c[nH]c4ncc(Cl)cc34)cn2)c1=O` [Compound P-2157, 3-{[5-(5-Chloro-1H-pyrrolo[2,3-b]pyridin-3-ylmethyl)-pyrimidin-2-ylamino]-methyl}-5-fluoro-1-methyl-1H-pyridin-2-one]: the IC50 is less than 100 nM.

The values above are taken from US10123998B2, “Kinase modulation, and indications therefor” (Plexxikon Inc., priority 2012, dated 2018).
